Data as given in patent publication US20190380912A1, “EXCIPIENT FREE GLUCOSAMINE TABLETS AND METHOD OF MAKING” (Purepharm Inc., priority 2018, published 2019).

Assay: Friability and hardness of dried tablets on handling
Assay type: physicochemical
Settings: Pellet Press, dry powder without water

CC(=O)N[C@H]1C(O)O[C@H](CO)[C@@H](O)[C@@H]1O (stereo partly shown) [N-Acetylglucosamine]
compressibility: did not compress at all
